The target of one test is T1, p-Akt1 in LNCaP cells (Homo sapiens, UniProt P31749).
T1 construct: SureFire assays to detect cellular p-Akt1, p-Akt2 and p-Akt3 levels in WM115 cells (Akt2/3) and LNCaP cells (Akt1); endogenous in cells; host or cells: LNCaP (ECACC 89110211)
Briefly: Phospho-Akt cellular SureFire assay, p-Akt1 in LNCaP cells. It is filed as cell-based. The conditions noted are these: read-out: Biological Assay 2 IC50 (nM) Akt1 LNCaP. The text has this: Biological Assay 2: Phospho-Akt (p-Akt) Cellular SureFire Assays
The following describes SureFire assays to detect cellular p-Akt1, p-Akt2 and p-Akt3 levels in WM115 cells (Akt2/3) and LNCaP cells (Akt1). In the case of Akt2 and Akt3, Streptavidin-coated donor beads capture a biotinylated anti-mouse antibody that in turn recognises a mouse total Akt antibody which is specific to each isoform. The protein A-conjugated acceptor beads capture an antibody that recognises the phosphoprotein. Similarly in the Akt1 kit, the donor and acceptor beads are used to capture each antibody pair consisting of an antibody that specifically recognises Akt1 as well as an antibody that recognises the phosphoprotein. In each case, close proximity of the beads allows energy transfer from donor to acceptor.
AlphaScreen® SureFire™ Phospho-Akt1 (pThr308) Kit from Perkin Elmer (TGRA2S10K)
LNCaP cells (ECACC, 89110211) cultured in RPMI-1640 culture media (Fisher, 10665193) supplemented with 2 mM L-glutamine, 1% sodium pyruvate and 10% FBS
Cell treatment: 1×10^5 WM115 cells or 5×10^4 LNCaP cells were seeded into each well of a 96 well poly-D-Lysine coated tissue culture plate and incubated overnight at 37° C.+5% CO2. Media was removed from cells and replaced with assay buffer consisting of the full culture media described above but with 0.1% FBS instead of 10% FBS. Only WM115 cells were stimulated at 37° C.+5% CO2 for 10 min with 5 μL insulin at a final concentration of 100 nM. Cells were incubated with 5 μL of test compound at a final DMSO concentration of 0.3% for 15 min at 37° C.+5% CO2. Cell lysis was carried out according to kit instructions.
Assay format (performed in subdued lighting): 4 μL cell lysate and 5 μL reaction buffer were incubated together in the dark at room temperature for 2 h. Reaction buffer was supplemented with a 1/5 dilution of activation buffer, a 1/50 dilution of acceptor beads and in the case of the custom kits, antibodies were added at dilutions of 1/20,000 for Akt2 and 1/2,000 for Akt3.
2 μL dilution buffer, supplemented with a 1/20 dilution of donor beads was added to each well and incubated for a further 2 h. Plates were read with the EnVision® Multilabel Plate Reader and using the AlphaScreen settings. Compound IC50 was determined using a 4-parameter equation.

Another test addresses T2, Akt2 (Homo sapiens, UniProt P31751).
T2 construct: unspecified tag, removed (detagged) (cleaved yes); purchased SignalChem and Proteros (Akt2); Merck Millipore (PDK1) 14-452 (PDK1); none given for Akt2
Briefly: Akt activation assay (PDK1-mediated activation, LANCE Ultra crosstide TR-FRET), Akt2. It is filed as biochemical. To be noted: read-out: Biological Assay 1 IC50 (nM) Akt2. The method in brief:
(§1)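 This TR-FRET readout (Eu-anti-phospho-crosstide antibody, 665/615 nm) measured PDK1-driven activation of Akt. Compound was first preincubated with each Akt isoform: Akt1 5 nM; Akt2 15 nM SignalChem or 5 nM Proteros; Akt3 3 nM SignalChem or 5 nM Proteros. Reactions then ran 30 min with 5 nM PDK1, lipid vesicles containing 0.55 µM PtdIns(3,4,5)P3, 100 µM ATP and 100 nM crosstide at pH 7.5, and IC50 came from a 4-parameter equation.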

The next test has as its target T3, Akt3 (Homo sapiens, UniProt Q9Y243).
T3 construct: unspecified tag, removed (detagged) (cleaved yes); purchased SignalChem and Proteros (Akt3); Merck Millipore (PDK1) 14-452 (PDK1); none given for Akt3
Nature of the test: Akt activation assay (PDK1-mediated activation, LANCE Ultra crosstide TR-FRET), Akt3. It is filed as biochemical. The conditions noted are these: read-out: Biological Assay 1 IC50 (nM) Akt3. The method in brief:
as §1

For the next test, the target named is T4, p-Akt2 in WM115 cells (Homo sapiens, UniProt P31751).
T4 construct: SureFire assays to detect cellular p-Akt1, p-Akt2 and p-Akt3 levels in WM115 cells (Akt2/3) and LNCaP cells (Akt1); endogenous in cells; host or cells: WM115 (ECACC 91061232), insulin-stimulated
T4 sequence (P31751 whole entry): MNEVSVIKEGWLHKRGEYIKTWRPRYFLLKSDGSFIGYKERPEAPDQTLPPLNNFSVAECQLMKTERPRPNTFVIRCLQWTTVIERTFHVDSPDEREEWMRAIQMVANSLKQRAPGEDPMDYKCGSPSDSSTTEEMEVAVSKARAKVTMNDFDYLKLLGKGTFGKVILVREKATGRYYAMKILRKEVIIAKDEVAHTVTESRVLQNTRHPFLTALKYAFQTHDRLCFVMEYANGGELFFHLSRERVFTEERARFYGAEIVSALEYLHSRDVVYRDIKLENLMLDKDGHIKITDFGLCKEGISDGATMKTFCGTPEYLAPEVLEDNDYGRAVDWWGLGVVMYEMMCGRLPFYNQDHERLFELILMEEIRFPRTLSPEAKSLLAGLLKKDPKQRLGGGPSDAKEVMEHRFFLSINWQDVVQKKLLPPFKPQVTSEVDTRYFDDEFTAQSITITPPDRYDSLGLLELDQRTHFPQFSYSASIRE
Nature of the test: Phospho-Akt cellular SureFire assay, p-Akt2 in WM115 cells. It is filed as cell-based. The conditions noted are these: insulin stimulated, read-out: Biological Assay 2 IC50 (nM) Akt2 WM115. The method in brief: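 Readout is a bead-proximity SureFire assay pairing a pThr308 Akt antibody with a total Akt2 antibody, lysate and beads incubated 2 h plus 2 h at room temperature in the dark. Before lysis, serum-starved WM115 cells received 100 nM insulin (10 min), then test compound (15 min, 0.3% DMSO); IC50 by 4-parameter equation.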

For another test, the target named is T5, p-Akt3 in WM115 cells (Homo sapiens, UniProt Q9Y243).
T5 construct: SureFire assays to detect cellular p-Akt1, p-Akt2 and p-Akt3 levels in WM115 cells (Akt2/3) and LNCaP cells (Akt1); endogenous in cells; host or cells: WM115 (ECACC 91061232), insulin-stimulated
T5 sequence (Q9Y243 whole entry): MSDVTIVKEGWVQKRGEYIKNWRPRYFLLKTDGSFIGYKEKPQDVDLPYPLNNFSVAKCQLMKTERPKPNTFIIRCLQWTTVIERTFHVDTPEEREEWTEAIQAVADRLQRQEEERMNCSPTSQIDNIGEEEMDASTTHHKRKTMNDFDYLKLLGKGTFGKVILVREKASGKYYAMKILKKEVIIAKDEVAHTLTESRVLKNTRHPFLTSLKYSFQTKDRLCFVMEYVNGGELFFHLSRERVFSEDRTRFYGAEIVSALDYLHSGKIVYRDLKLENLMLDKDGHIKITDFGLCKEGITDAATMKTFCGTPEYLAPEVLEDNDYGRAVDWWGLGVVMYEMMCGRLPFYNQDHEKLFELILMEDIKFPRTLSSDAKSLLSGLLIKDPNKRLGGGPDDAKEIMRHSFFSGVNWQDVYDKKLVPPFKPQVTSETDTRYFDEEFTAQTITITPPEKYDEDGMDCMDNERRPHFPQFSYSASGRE
Nature of the test: Phospho-Akt cellular SureFire assay, p-Akt3 in WM115 cells. It is filed as cell-based. The conditions noted are these: insulin stimulated, read-out: Biological Assay 2 IC50 (nM) Akt3 WM115. The method in brief:
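pThr308-Akt3 in lysates was quantified by bead-proximity SureFire detection, pairing a phospho-specific antibody with a total Akt3 antibody. Before lysis, WM115 cells in 0.1% FBS medium were treated for 15 min at 37 °C with compound (final DMSO 0.3%), following a 10 min stimulation with 100 nM insulin. IC50 was obtained by 4-parameter fitting.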

T3 sequence (Q9Y243 whole entry): as above
T1 sequence (P31749 whole entry): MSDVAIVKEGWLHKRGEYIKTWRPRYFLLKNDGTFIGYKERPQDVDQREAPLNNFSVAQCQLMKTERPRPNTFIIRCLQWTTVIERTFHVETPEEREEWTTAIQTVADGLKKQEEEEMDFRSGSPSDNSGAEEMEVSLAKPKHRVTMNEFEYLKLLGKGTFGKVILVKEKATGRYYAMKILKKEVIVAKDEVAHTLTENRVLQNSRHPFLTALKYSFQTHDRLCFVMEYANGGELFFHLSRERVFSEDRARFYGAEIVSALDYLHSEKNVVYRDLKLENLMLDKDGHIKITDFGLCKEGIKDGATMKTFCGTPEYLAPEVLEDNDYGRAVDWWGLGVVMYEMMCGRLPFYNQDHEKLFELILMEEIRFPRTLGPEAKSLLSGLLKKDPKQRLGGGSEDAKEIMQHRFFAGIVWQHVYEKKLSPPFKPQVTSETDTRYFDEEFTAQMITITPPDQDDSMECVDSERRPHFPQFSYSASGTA
T2 sequence (P31751 whole entry): as the sequence (P31751 whole entry) above

For the compound `COC(=O)N[C@H]1CC[C@H](CC(=O)Nc2cc(-c3ccccc3)c(-c3ccc([C@]4(N)C[C@](C)(O)C4)cc3)cn2)CC1` [Example 103, Methyl (trans-4-(2-((5-(4-(trans-1-amino-3-hydroxy-3-methylcyclobutyl)phenyl)-4-phenylpyridin-2-yl)amino)-2-oxoethyl)cyclohexyl)carbamate], the concentration for half-maximal inhibition (IC50) at p-Akt1 in LNCaP cells came to 2600 nM; on Akt2 it was 78 nM; at Akt3 it was 11 nM; on p-Akt2 in WM115 cells, 390 nM; at p-Akt3 in WM115 cells, 15 nM.
In the case of `CCC(=O)N(C)[C@H]1CC[C@H](CC(=O)Nc2cc(-c3ccsc3)c(-c3ccc([C@]4(N)C[C@](C)(O)C4)cc3)cn2)CC1` [Example 110, N-(trans-4-(2-((5-(4-(trans-1-amino-3-hydroxy-3-methylcyclobutyl)phenyl)-4-(thiophen-3-yl)pyridin-2-yl)amino)-2-oxoethyl)cyclohexyl)-N-methylpropionamide], the concentration for half-maximal inhibition (IC50) is 8800 nM at p-Akt1 in LNCaP cells; 380 nM at Akt2; 17 nM on Akt3; 1200 nM at p-Akt2 in WM115 cells; 16 nM on p-Akt3 in WM115 cells.
With `COC(=O)N(C(C)C)[C@H]1CC[C@H](CC(=O)Nc2cnc(-c3ccc([C@]4(N)C[C@](C)(O)C4)cc3)c(-c3ccccc3)c2)CC1` [Example 121, Methyl (trans-4-(2-((6-(4-(trans-1-amino-3-hydroxy-3-methylcyclobutyl)phenyl)-5-phenylpyridin-3-yl)amino)-2-oxoethyl)cyclohexyl) (isopropyl)carbamate], the IC50 on p-Akt1 in LNCaP cells was determined as 1800 nM; at Akt2 it was 160 nM; at Akt3, 7 nM; at p-Akt2 in WM115 cells, 390 nM; at p-Akt3 in WM115 cells, 11 nM.
The matching figures for `CCCC(=O)N(C)[C@H]1CC[C@H](CC(=O)Nc2cnc(-c3ccc(C4(N)CC4)cc3)c(-c3ccccc3)c2)CC1` [Example A33, N-(trans-4-(2-((6-(4-(1-aminocyclopropyl)phenyl)-5-phenylpyridin-3-yl)amino)-2-oxoethyl)cyclohexyl)-N-methylbutyramide]: more than 16000 nM, 380 nM, 98 nM, 2500 nM and 140 nM.
Regarding `C[C@]1(O)C[C@@](N)(c2ccc(-c3cnc(NC(=O)C[C@H]4CC[C@H](N5CCOC5=O)CC4)cc3-c3ccccc3)cc2)C1` [Example A57, N-(5-(4-(trans-1-amino-3-hydroxy-3-methylcyclobutyl)phenyl)-4-phenylpyridin-2-yl)-2-(trans-4-(2-oxooxazolidin-3-yl)cyclohexyl)acetamide], the IC50 on p-Akt1 in LNCaP cells was 5800 nM; on Akt2 it was 130 nM; at Akt3, 8 nM; at p-Akt2 in WM115 cells it was 360 nM; on p-Akt3 in WM115 cells, 17 nM.
The matching figures for `CC(=O)N(C)[C@H]1CC[C@H](CC(=O)Nc2cc(-c3ccccc3)c(-c3ccc([C@]4(N)C[C@](C)(O)C4)cc3)cn2)CC1` [Example A58, N-(5-(4-(trans-1-amino-3-hydroxy-3-methylcyclobutyl)phenyl)-4-phenylpyridin-2-yl)-2-(trans-4-(N-methylacetamido)cyclohexyl)acetamide]: 7900 nM, 190 nM, 8 nM, 480 nM and 11 nM.
Consider `COC(=O)N(C)[C@H]1CC[C@H](CC(=O)Nc2cc(-c3ccccc3)c(-c3ccc([C@]4(N)C[C@H](F)C4)cc3)nn2)CC1` [Example A60, Methyl (trans-4-(2-((6-(4-(trans-1-amino-3-fluorocyclobutyl)phenyl)-5-phenylpyridazin-3-yl)amino)-2-oxoethyl)cyclohexyl)(methyl)carbamate], for which the IC50 at p-Akt1 in LNCaP cells was more than 30000 nM; at Akt2, 630 nM; at Akt3, 22 nM; on p-Akt2 in WM115 cells, 15000 nM; at p-Akt3 in WM115 cells, 670 nM.
For `COC(=O)N(C)[C@H]1CC[C@H](CC(=O)Nc2cnc(-c3ccc(C4(N)CCC4)cc3)c(-c3ccsc3)c2)CC1` [Example A68, Methyl (trans-4-(2-((6-(4-(1-aminocyclobutyl)phenyl)-5-(thiophen-3-yl)pyridin-3-yl)amino)-2-oxoethyl)cyclohexyl)(methyl)carbamate], the IC50 on p-Akt1 in LNCaP cells is more than 30000 nM; at Akt2 it was 850 nM; at Akt3, 40 nM; on p-Akt2 in WM115 cells it was 7400 nM; at p-Akt3 in WM115 cells, 250 nM.
Consider `CN(C(=O)C1CC1)[C@H]1CC[C@H](CC(=O)Nc2cc(-c3ccccc3)c(-c3ccc(C4(N)CCC4)cc3)cn2)CC1` [Example A72, N-(trans-4-(2-((5-(4-(1-aminocyclobutyl)phenyl)-4-phenylpyridin-2-yl)amino)-2-oxoethyl)cyclohexyl)-N-methylcyclopropanecarboxamide], for which the 50% inhibitory concentration (IC50) at p-Akt1 in LNCaP cells worked out at 8800 nM; on Akt2 it was 290 nM; on Akt3 it was 24 nM; at p-Akt2 in WM115 cells, 3500 nM; at p-Akt3 in WM115 cells it was 220 nM.
`CC(C)OC(=O)N(C)[C@H]1CC[C@H](CC(=O)Nc2cc(-c3ccccc3)c(-c3ccc([C@]4(N)C[C@](C)(O)C4)cc3)cn2)CC1` [Example A74, Isopropyl (trans-4-(2-((5-(4-(trans-1-amino-3-hydroxy-3-methylcyclobutyl)phenyl)-4-phenylpyridin-2-yl)amino)-2-oxoethyl)cyclohexyl)(methyl)carbamate]: the IC50 at p-Akt1 in LNCaP cells came out at 11000 nM; at Akt2 it was 210 nM; on Akt3, 22 nM; at p-Akt2 in WM115 cells, 3000 nM; at p-Akt3 in WM115 cells it was 160 nM.
The matching figures for `CN(C(=O)C1CCC1)[C@H]1CC[C@H](CC(=O)Nc2cc(-c3ccccc3)c(-c3ccc([C@]4(N)C[C@](C)(O)C4)cc3)cn2)CC1` [Example A76, N-(trans-4-(2-((5-(4-(trans-1-amino-3-hydroxy-3-methylcyclobutyl)phenyl)-4-phenylpyridin-2-yl)amino)-2-oxoethyl)cyclohexyl)-N-methylcyclobutanecarboxamide]: 4300 nM, 190 nM, 13 nM, 1200 nM and 59 nM.
Consider `COC(=O)N[C@H]1CC[C@H](CC(=O)Nc2cc(-c3ccccc3)c(-c3ccc(C4(N)CC4)c(F)c3)cn2)CC1` [Example A106, Methyl (trans-4-(2-((5-(4-(1-aminocyclopropyl)-3-fluorophenyl)-4-phenylpyridin-2-yl)amino)-2-oxoethyl)cyclohexyl)carbamate], for which the IC50 on p-Akt1 in LNCaP cells is more than 30000 nM; at Akt2, 11000 nM; at Akt3 it was 750 nM; at p-Akt2 in WM115 cells, 23000 nM; on p-Akt3 in WM115 cells, 1700 nM.
